In ChEMBL document CHEMBL1143710, “Synthesis, antifungal and antimicrobial activity of alkylphospholipids” (Bioorg Med Chem, 2007):
In brackets after ≈: the same amount, converted by molar mass. Activity calls are given as the source filed them. The calls are words filed in the database; no cut-off is given here.

Columns and labels:
[1] = Toxicity assessed as haemolytic activity against human erythrocytes at 3.5 uM; type: cell-based, Erythrocyte; settings: read-out: Activity
[2] = Toxicity assessed as haemolytic activity against human erythrocytes at 17.5 uM; type: cell-based, Erythrocyte; settings: read-out: Activity
[3] = molecular target: T1, Phospholipase B (Cryptococcus neoformans) (UniProt Q9P8P2); experiment: Inhibition of phospholipase B activity of Cryptococcus neoformans var. grubi H99 secreted PLB1 by radiometric assay method
T1 sequence (whole entry): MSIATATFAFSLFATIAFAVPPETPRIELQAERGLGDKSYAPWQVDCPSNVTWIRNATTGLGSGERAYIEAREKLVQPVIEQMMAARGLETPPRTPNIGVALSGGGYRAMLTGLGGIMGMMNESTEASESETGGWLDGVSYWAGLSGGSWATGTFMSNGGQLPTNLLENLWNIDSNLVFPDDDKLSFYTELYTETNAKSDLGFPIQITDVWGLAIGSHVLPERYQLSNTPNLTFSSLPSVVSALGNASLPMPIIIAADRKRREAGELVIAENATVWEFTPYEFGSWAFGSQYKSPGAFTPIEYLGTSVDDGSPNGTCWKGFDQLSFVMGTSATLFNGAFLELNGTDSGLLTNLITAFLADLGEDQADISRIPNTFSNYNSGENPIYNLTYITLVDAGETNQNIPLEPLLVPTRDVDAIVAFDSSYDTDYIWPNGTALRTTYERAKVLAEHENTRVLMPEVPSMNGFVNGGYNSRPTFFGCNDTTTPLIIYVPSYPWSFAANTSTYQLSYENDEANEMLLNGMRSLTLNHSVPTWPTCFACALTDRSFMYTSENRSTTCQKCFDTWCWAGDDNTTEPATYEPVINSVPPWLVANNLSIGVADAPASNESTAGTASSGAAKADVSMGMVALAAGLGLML

Candida albicans = experiment: Antifungal activity against Candida albicans ATCC 10231; type: functional
[4] = Toxicity assessed as haemolytic activity against human erythrocytes at 175 uM; type: cell-based, Erythrocyte; settings: read-out: Activity
[5] = molecular target: T1, Phospholipase B (Cryptococcus neoformans); experiment: Inhibition of […] activity of Cryptococcus neoformans var. grubi H99 secreted PLB1 at 25 uM by radiometric assay method
[6] = Toxicity assessed as haemolytic activity against human erythrocytes at 44 uM; type: cell-based, Erythrocyte; settings: read-out: Activity
[7] = Toxicity assessed as haemolytic activity against human erythrocytes at 88 uM; type: cell-based, Erythrocyte; settings: read-out: Activity
Cryptococcus neoformans = experiment: Antifungal activity against Cryptococcus neoformans ATCC 90112; type: functional
Escherichia coli = experiment: Antibacterial activity against Escherichia coli ATCC 25922 after 24 hrs; type: functional; settings: ATCC 25922, 24 h
Staphylococcus aureus [8] = experiment: Antibacterial activity against methicillin-resistant Staphylococcus aureus after 24 hrs; type: functional
Staphylococcus aureus [9] = experiment: Antibacterial activity against Staphylococcus aureus ATCC 25923 after 24 hrs; type: functional; settings: ATCC 25923, 24 h
[10] = Toxicity assessed as haemolytic activity against human erythrocytes at 350 uM; type: cell-based, Erythrocyte; settings: read-out: Activity
Enterococcus = experiment: Antibacterial activity against vancomycin-resistant Enterococcus ATCC 51299 after 24 hrs; type: functional; settings: ATCC 51299, 24 h
[11] = molecular target: T1, Phospholipase B (Cryptococcus neoformans); experiment: Inhibition of […] activity of Cryptococcus neoformans var. grubi H99 secreted PLB1 at 250 uM by radiometric assay method
[12] = molecular target: T1, Phospholipase B (Cryptococcus neoformans); experiment: Inhibition of lysophosphatidic acid acyltransferase activity of Cryptococcus neoformans var. grubi H99 secreted PLB1 at 25 uM by radiometric assay method
Streptococcus pneumoniae = experiment: Antibacterial activity against Streptococcus pneumoniae ATCC 46919 after 24 hrs; type: functional; settings: ATCC 46919, 24 h
[13] = molecular target: T1, Phospholipase B (Cryptococcus neoformans); experiment: Inhibition of lysophosphatidic acid acyltransferase activity of Cryptococcus neoformans var. grubi H99 secreted PLB1 at 250 uM by radiometric assay method
Pseudomonas aeruginosa = experiment: Antibacterial activity against Pseudomonas aeruginosa ATCC 27853 after 24 hrs; type: functional; settings: ATCC 27853, 24 h

SMILES	hemolysis at 3.5 µM [1] [%]	hemolysis at 17.5 µM [2] [%]	Activity [3]	MIC (Candida albicans) [µM]	hemolysis at 175 µM [4] [%]	Activity [5]	hemolysis at 44 µM [6] [%]	hemolysis at 88 µM [7] [%]	MIC (Cryptococcus neoformans) [µM]	MIC (Escherichia coli) [µM]	MIC (Staphylococcus aureus [8]) [µM]	MIC (Staphylococcus aureus [9]) [µM]	hemolysis at 350 µM [10] [%]	MIC (Enterococcus) [µM]	Activity [11]	Activity [12]	MIC (Streptococcus pneumoniae) [µM]	Activity [13]	MIC (Pseudomonas aeruginosa) [µM]
CCCCCCCCCCCCOP(=O)([O-])OCC[N+](C)(C)C	0	0	inactive	350 (≈ 123 µg/mL)	0	inactive	0	0	175 (≈ 61.5 µg/mL)	–	–	–	–	–	–	–	–	–	–
CCCCCCCCCCCCCCCCCCOCC(COP(=O)([O-])OCC[N+](C)(C)C)OC (stereo unspecified) [EDELFOSINE]	0	0	–	5.5 (≈ 2.88 µg/mL)	100	–	13	83	> 350	> 350	11 (≈ 5.76 µg/mL)	44 (≈ 23 µg/mL)	100	–	–	–	–	–	–
CCCCC(CC)CNC(=O)CCCCCOP(=O)([O-])OCC[N+](C)(C)C (stereo unspecified)	0	0	–	> 350	0	–	0	0	> 350	> 350	> 350	> 350	–	> 350	–	–	–	–	–
CCCCCCCCCCCCCCCCCCOCC(O)COP(=O)([O-])OCC[N+](C)(C)C (stereo unspecified)	0	0	–	> 350	100	–	10	86	88 (≈ 44.9 µg/mL)	> 350	11 (≈ 5.61 µg/mL)	22 (≈ 11.2 µg/mL)	100	11 (≈ 5.61 µg/mL)	–	–	–	–	–
CCCCCCCCCOC(=O)CCCCCOP(=O)([O-])OCC[N+](C)(C)C	0	0	–	> 350	0	–	0	0	175 (≈ 74.1 µg/mL)	–	–	–	–	–	–	–	–	–	–
CCCCCCCCCCCCCCCCOP(=O)([O-])OCC[N+](C)(C)C [MILTEFOSINE]	0	0	–	5.5 (≈ 2.24 µg/mL)	95	inactive	5	25	2.75 (≈ 1.12 µg/mL)	> 350	22 (≈ 8.97 µg/mL)	44 (≈ 17.9 µg/mL)	100	44 (≈ 17.9 µg/mL)	Active	Active	11 (≈ 4.48 µg/mL)	Active	> 600
CCCCCCCCCCCCCCCCCCOP(=O)([O-])OCC[N+](C)(C)C [OCTADECYLPHOSPHONOCHOLINE]	0	0	–	1.4 (≈ 0.61 µg/mL)	100	inactive	60	92	1.4 (≈ 0.61 µg/mL)	> 350	22 (≈ 9.58 µg/mL)	22 (≈ 9.58 µg/mL)	100	–	Active	–	–	Active	–
CCCCCCCC/C=C\CCCCCCCCCCCCOP(=O)([O-])OCC[N+](C)(C)C [ERUFOSINE]	0	0	–	44 (≈ 21.5 µg/mL)	90	–	0	15	22 (≈ 10.8 µg/mL)	> 350	22 (≈ 10.8 µg/mL)	> 350	100	11 (≈ 5.39 µg/mL)	–	–	–	–	–
CCCCCCCCCCCCCCCCCC(=O)NCC(COP(=O)([O-])OCC[N+](C)(C)C)OC (stereo unspecified)	0	0	–	5.5 (≈ 2.95 µg/mL)	100	–	5	56	22 (≈ 11.8 µg/mL)	> 350	11 (≈ 5.9 µg/mL)	44 (≈ 23.6 µg/mL)	100	22 (≈ 11.8 µg/mL)	–	–	–	–	–
CC1(C)S[C@@H]2[C@H](NC(=O)[C@H](N)c3ccc(O)cc3)C(=O)N2[C@H]1C(=O)O [AMOXICILLIN]	–	–	–	–	–	–	–	–	–	22 (≈ 8.04 µg/mL)	–	0.7 (≈ 0.256 µg/mL)	–	–	–	–	–	–	–
C[N+](C)(C)CCOP(=O)([O-])OCCCCCC(=O)NC12CC3CC(CC(C3)C1)C2	–	–	–	> 350	–	–	–	–	> 350	–	–	–	–	–	–	–	–	–	–
CCCCCCCCCNC(=O)CCCCCOP(=O)([O-])OCC[N+](C)(C)C	0	0	inactive	> 350	0	inactive	0	0	> 350	> 350	> 350	> 350	–	> 350	–	–	–	–	–
CCCCCCCCCCCCCCCCCCOP(=O)([O-])OCC[P+](C)(C)C	0	2	–	2.75 (≈ 1.24 µg/mL)	100	inactive	40	97	2.75 (≈ 1.24 µg/mL)	–	–	–	–	–	Active	–	–	Active	–
CN[C@H](CC(C)C)C(=O)N[C@H]1C(=O)N[C@@H](CC(N)=O)C(=O)N[C@H]2C(=O)N[C@H]3C(=O)N[C@H](C(=O)N[C@H](C(=O)O)c4cc(O)cc(O)c4-c4cc3ccc4O)[C@H](O)c3ccc(c(Cl)c3)Oc3cc2cc(c3O[C@@H]2O[C@H](CO)[C@@H](O)[C@H](O)[C@H]2O[C@H]2C[C@](C)(N)[C@H](O)[C@H](C)O2)Oc2ccc(cc2Cl)[C@H]1O [VANCOMYCIN]	–	–	–	–	–	–	–	–	–	–	–	–	–	0.7 (≈ 1.01 µg/mL)	–	–	–	–	–
C[C@@H]1[C@H](O)[C@@H](C)/C=C/C=C/C=C/C=C/C=C/C=C/C=C/[C@H](O[C@@H]2O[C@H](C)[C@@H](O)[C@H](N)[C@@H]2O)C[C@@H]2O[C@](O)(C[C@@H](O)C[C@@H](O)[C@H](O)CC[C@@H](O)C[C@@H](O)CC(=O)O[C@H]1C)C[C@H](O)[C@H]2C(=O)O [AMPHOTERICIN B]	–	–	–	0.54 (≈ 0.499 µg/mL)	–	–	–	–	0.54 (≈ 0.499 µg/mL)	–	–	–	–	–	–	–	–	–	–
CC(C)[C@H](NC(=O)CCCCCOP(=O)([O-])OCC[N+](C)(C)C)C(N)=O	0	0	–	> 350	0	–	0	0	> 350	–	–	–	0	–	–	–	–	–	–
CCCCCCCC/C=C/CCCCCCCCOP(=O)([O-])OCC[N+](C)(C)C [ELAIDYLPHOSPHOCHOLINE]	0	0	–	2.75 (≈ 1.19 µg/mL)	100	–	0	50	2.75 (≈ 1.19 µg/mL)	> 350	22 (≈ 9.54 µg/mL)	22 (≈ 9.54 µg/mL)	100	22 (≈ 9.54 µg/mL)	–	–	–	–	–
